US11815511B2 (priority 2019, dated 2023)

test system: anti-4,15-diacetoxyscirpenol monoclonal antibody secreted by hybridoma cell strain DAS5G11E7; type: binding, mouse; details: in ng/mL

Q: Which IC50 does the source give for CC1=C[C@H]2O[C@@H]3[C@H](O)C[C@](C)([C@@]2(CO)[C@H](O)C1=O)[C@]31CO1 [DON, Deoxynivalenol] here?
A: The IC50 was >100,000.

Q: HT-2 toxin was tested. Which IC50 did it give?
A: Its IC50 is >100,000.

Q: For 3-acetyldeoxynivalenol [3-acetyl-DON], which IC50 is on record?
A: The IC50 was >100,000.

Q: How did the IC50 turn out when C[C@@H]1Cc2c(Cl)cc(C(=O)N[C@@H](Cc3ccccc3)C(=O)O)c(O)c2C(=O)O1 [OTA, ochratoxin] was run?
A: The IC50 was >100,000.
